{"source": "paper PMC11420952", "about": "“A Chemical Approach to Assess the Impact of Post-translational Modification on MHC Peptide Binding and Effector Cell Engagement” (ACS Chemical Biology, 2024)", "target": "T1, H-2K^b (Mus musculus, UniProt P01901)", "T1 construct": "endogenous in cells; host or cells: RMA-S cells (TAP-deficient)", "T1 sequence (P01901 22-369)": "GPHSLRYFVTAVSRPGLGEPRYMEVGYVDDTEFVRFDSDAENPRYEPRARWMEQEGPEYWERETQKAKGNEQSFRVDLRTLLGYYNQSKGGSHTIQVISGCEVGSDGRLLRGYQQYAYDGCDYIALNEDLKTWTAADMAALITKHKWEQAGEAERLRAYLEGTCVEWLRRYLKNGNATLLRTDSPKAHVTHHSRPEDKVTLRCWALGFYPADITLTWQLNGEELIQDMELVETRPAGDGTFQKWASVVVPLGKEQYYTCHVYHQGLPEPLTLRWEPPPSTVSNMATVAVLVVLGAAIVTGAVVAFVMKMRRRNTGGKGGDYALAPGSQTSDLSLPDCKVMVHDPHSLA", "T1 sequence (P01887 21-119 partner)": "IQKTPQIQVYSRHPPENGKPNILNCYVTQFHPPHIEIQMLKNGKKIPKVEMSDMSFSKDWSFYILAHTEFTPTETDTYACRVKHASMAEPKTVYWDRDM", "assay": "cell-based", "conditions": "sarsWT concentration scan; 1 h 26 °C then 6 h 37 °C; APC anti-mouse H-2K^b antibody, flow cytometry; Figure S2, mean ± SD n = 3; read-out: EC50 of pMHC stabilization on RMA-S cells", "note": "pEC50: −log10 of the molar value. Where no end group is shown, it is not given here.", "data": [{"sequence": "ESIVRFPNI [sarsWT]", "values": [{"measurement": "pEC50", "result": 5.77}]}]}
